Measurements reported in patent US20240307480A1, “MELFLUFEN FOR USE IN THE TREATMENT OF MULTIPLE MYELOMA” (Oncopeptides AB, priority 2021, published 2024).

Test system: patients with relapsed refractory multiple myeloma (RRMM) refractory to lenalidomide
Experiment: Randomized, controlled, open-label, Phase 3 multicenter study of melflufen+dexamethasone versus pomalidomide+dexamethasone (Example 1)
Type: in vivo, human
Details: for OS / PFS: no stem cell transplant
Experimental: Patients received either melflufen+dexamethasone or pomalidomide+dexamethasone.
Patients were randomized to either one of two arms (see Table 1 below): • Arm A: Melphalan flufenamide (Melflufen) 40 mg on Day 1 and dexamethasone 40 mg on Days 1, 8, 15 and 22 of each 28-day cycle. • Arm B: Pomalidomide 4 mg daily on Days 1 to 21 and dexamethasone 40 mg on Days 1, 8, 15 and 22 of each 28-day cycle.
Dose modifications and delays in therapy were implemented based on patient tolerability as detailed in the protocol. In the event of a cycle delay, unrelated to dexamethasone toxicity, it was recommended to continue dexamethasone weekly.
• Study Type: Interventional (Clinical Trial) • Actual Enrollment: 495 participants • Allocation: Randomized • Intervention Model: Parallel Assignment • Masking: Single (Outcomes Assessor) • Primary Purpose: Treatment • Official Title: A Randomized, Controlled, Open-label, Phase 3 Study of Melflufen/Dexamethasone Compared With Pomalidomide/Dexamethasone for Patients With Relapsed Refractory Multiple Myeloma Who Are Refractory to Lenalidomide
• 1. Progression Free Survival (PFS) [Time Frame: From randomization to time of progression, or, if no progression, 24 months after end of treatment]: To compare the PFS of melflufen plus dexamethasone (Arm A) versus pomalidomide plus dexamethasone (Arm B) as assessed by the Independent Review Committee (IRC) according to the International Myeloma Working Group Uniform Response Criteria (IMWG-URC)
• 1. […] Overall Survival (OS) [Time Frame: From randomization until end of study (2 years after confirmed progression)]: To assess and compare OS in Arm A versus Arm B • 4. Safety and Tolerability: Number of patients with treatment-emergent adverse events, including clinical laboratory and vital signs abnormalities, as assessed by CTCAE v4.0 [Time Frame: From start of dosing until 30 days after last dose]: To assess and compare safety and tolerability in Arm A versus Arm B. Number of patients with treatment-emergent adverse events, including clinical laboratory and vital signs abnormalities, as assessed by CTCAE v4.0 will be presented. No formal statistical analysis will be performed for safety endpoints.
• 1. Male or female, age 18 years or older • 2. A prior diagnosis of multiple myeloma with documented disease progression requiring further treatment at time of screening • 3. Measurable disease defined as any of the following: • Serum monoclonal protein ≥0.5 g/dl by protein electrophoresis. • ≥200 mg/24 hours of monoclonal protein in the urine on 24-hour electrophoresis • Serum free light chain ≥10 mg/dl AND abnormal serum kappa to lambda free light chain ratio • 4. Received 2-4 prior lines of therapy, including lenalidomide and a PI, either sequential or in the same line, and is refractory (relapsed and refractory or refractory) to both the last line of therapy and to lenalidomide (≥10 mg) administered within 18 months prior to randomization. Refractory to lenalidomide is defined as progression while on lenalidomide therapy or within 60 days of last dose, following at least 2 cycles of lenalidomide with at least 14 doses of lenalidomide per cycle • 5. Life expectancy of ≥6 months • 6. Eastern Cooperative Oncology Group (ECOG) performance status ≤2 • 7. […] Participants must agree to ongoing pregnancy testing. All patients must be willing to comply with all requirements of the USA pomalidomide Risk Evaluation and Mitigation Strategy (REMS) program or the pomalidomide Pregnancy Prevention Plan (PPP) • 8. Ability to understand the purpose and risks of the study and provide signed and dated informed consent • 9. 12-lead Electrocardiogram (ECG) with QT interval calculated by Fridericia Formula (QTcF) interval of ≤470 msec Fridericia Formula • 10. […] Must be able to take antithrombotic prophylaxis • 12. Must have, or be willing to have an acceptable central catheter.

[1] = excluding patients who had received a stem cell transplant and progressed in under 36 months (melflufen+dex n=145, pomalidomide+dex n=148)
[2] = subgroup patients under 65 years
[3] = patients 75 or over who received melflufen, pomalidomide comparator worded as patients who had not received a stem cell transplant
[4] = patients who had not received a stem cell transplant as a past treatment (melflufen n=121, pomalidomide n=129), each arm with dexamethasone
[5] = stem cell transplant at least 5 years ago, melflufen in relation to pomalidomide, value below 1 favours melflufen

| SMILES | median overall survival (OS) [1] | OS (subgroup 64 to 74 years) | PFS (subgroup 64 to 74 years) | OS (subgroup 75 years and over) | PFS (subgroup 75 years and over) | OS (subgroup age under 75 years) | PFS (subgroup age under 75 years) | OS [2] | PFS [2] | median PFS [3] | median overall survival (OS) [3] | median overall survival (OS) [4] | median progression free survival (PFS) [4] | hazard ratio (PFS) (stem cell transplant 2.5 to 5 years ago, melflufen in relation to pomalidomide, value below 1 favours melflufen) | OS hazard ratio [5] | PFS hazard ratio [5] |
| --- | --- | --- | --- | --- | --- | --- | --- | --- | --- | --- | --- | --- | --- | --- | --- | --- |
| CCOC(=O)[C@H](Cc1ccc(F)cc1)NC(=O)[C@@H](N)Cc1ccc(N(CCCl)CCCl)cc1.Cl [melflufen, L-melphalanyl-4-fluoro-L-phenylalanine ethyl ester] | 23.6 months | 22.2 | 9.3 | 14.8 | 9.3 | 22.2 | 9.4 | 27.5 | 10.8 | 9.4 months | 21.6 months | 21.6 months | 9.3 months | 0.83 | 0.87 | 0.76 |
| Nc1cccc2c1C(=O)N(C1CCC(=O)NC1=O)C2=O (stereo not shown) [pomalidomide, reference compound] | 19.8 months | 15.0 | 3.9 | 8.1 | 4.9 | 18.2 | 4.3 | – | 4.7 | 4.6 months | 8.3 months | 16.5 months | 4.6 months | – | – | – |
